Bridge positions count the residues as written; N and C are the ends. Square brackets hold non-standard residues; d marks the D form. Peptide text beside a SMILES is read from it.
How the values were obtained:
[1] = molecular target: Delta-type opioid receptor (Rattus norvegicus, UniProt P33533); test: Displacement of [3H][Ile5,6]deltorphin-2 from DOR in Wistar rat brain membranes by liquid scintillation counting method; type: cell membranes, Membrane
Mu-type opioid receptor = Mu-type opioid receptor (Rattus norvegicus, UniProt P33535); test: Displacement of [3H]DAMGO from MOR in Wistar rat brain membranes by liquid scintillation counting method; type: cell membranes, Membrane
Chain of Mu-type opioid receptor (P33535 whole entry): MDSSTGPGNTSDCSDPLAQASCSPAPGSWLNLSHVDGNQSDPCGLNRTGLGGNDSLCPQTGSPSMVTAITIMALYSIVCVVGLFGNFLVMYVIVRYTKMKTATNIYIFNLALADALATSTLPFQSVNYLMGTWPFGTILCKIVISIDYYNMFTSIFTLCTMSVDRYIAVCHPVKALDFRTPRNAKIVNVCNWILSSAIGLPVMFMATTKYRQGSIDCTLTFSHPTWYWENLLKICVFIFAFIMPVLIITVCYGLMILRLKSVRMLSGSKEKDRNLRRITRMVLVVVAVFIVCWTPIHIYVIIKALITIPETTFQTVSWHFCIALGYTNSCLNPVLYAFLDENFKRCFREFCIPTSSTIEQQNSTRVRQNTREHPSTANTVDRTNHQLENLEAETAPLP

[2] = molecular target: Kappa-type opioid receptor (Cavia porcellus, UniProt P41144); test: Displacement of [3H]nor-BNI from KOR in Dunkin Hartley guinea pig membranes by liquid scintillation counting method; type: cell membranes
Chain of Kappa-type opioid receptor (P41144 whole entry): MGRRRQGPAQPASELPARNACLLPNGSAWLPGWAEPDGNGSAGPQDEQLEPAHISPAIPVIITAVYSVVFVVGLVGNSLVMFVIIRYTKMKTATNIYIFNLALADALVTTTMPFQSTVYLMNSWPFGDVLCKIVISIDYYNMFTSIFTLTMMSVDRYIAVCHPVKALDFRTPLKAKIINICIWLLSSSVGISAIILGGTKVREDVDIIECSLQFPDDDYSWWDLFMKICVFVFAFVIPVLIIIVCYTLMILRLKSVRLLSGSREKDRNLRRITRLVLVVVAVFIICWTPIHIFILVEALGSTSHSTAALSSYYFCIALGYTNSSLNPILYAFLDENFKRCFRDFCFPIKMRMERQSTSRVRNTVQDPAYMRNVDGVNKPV

Chain of Delta-type opioid receptor (P33533 whole entry): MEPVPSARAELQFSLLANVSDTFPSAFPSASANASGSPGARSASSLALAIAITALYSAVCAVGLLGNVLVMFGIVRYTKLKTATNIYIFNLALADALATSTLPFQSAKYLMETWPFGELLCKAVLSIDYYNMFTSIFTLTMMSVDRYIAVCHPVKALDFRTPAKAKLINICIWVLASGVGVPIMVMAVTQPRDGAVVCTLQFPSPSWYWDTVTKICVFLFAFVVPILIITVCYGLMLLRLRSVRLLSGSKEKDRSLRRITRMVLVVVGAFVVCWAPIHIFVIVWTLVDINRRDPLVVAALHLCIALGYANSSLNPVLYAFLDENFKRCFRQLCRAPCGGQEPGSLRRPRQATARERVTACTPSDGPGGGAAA

| SMILES | IC50 [1] [nM] | IC50 (Mu-type opioid receptor) [nM] | IC50 [2] [nM] |
| --- | --- | --- | --- |
| Cc1cc(O)cc(C)c1C[C@H](N)C(=O)N[C@@H]1C[C@H]2CC[C@@H](CC2)NC(=O)C[C@@H](C(N)=O)NC(=O)[C@H](Cc2ccccc2)NC(=O)[C@H](Cc2ccccc2)NC1=O | 0.38 | 0.022 | 25 |
| NC(=O)[C@@H]1CC(=O)N[C@H]2CC[C@@H](CC2)C[C@@H](NC(=O)[C@@H](N)Cc2ccc(O)cc2)C(=O)N[C@@H](Cc2ccccc2)C(=O)N[C@@H](Cc2ccccc2)C(=O)N1 | 3.9 | 2.08 | – |
| Cc1cc(O)cc(C)c1C[C@H](N)C(=O)N[C@@H]1C[C@H]2CC[C@H](CC2)NC(=O)C[C@@H](C(N)=O)NC(=O)[C@H](Cc2ccccc2)NC(=O)[C@H](Cc2ccccc2)NC1=O | > 1000 | 0.04 | > 1000 |
| NC(=O)[C@@H]1CC(=O)N[C@H]2CC[C@H](CC2)C[C@@H](NC(=O)[C@@H](N)Cc2ccc(O)cc2)C(=O)N[C@@H](Cc2ccccc2)C(=O)N[C@@H](Cc2ccccc2)C(=O)N1 | > 1000 | 3.2 | – |
| NC(=O)[C@@H]1CC(=O)NCCCC[C@@H](NC(=O)[C@@H](N)Cc2ccc(O)cc2)C(=O)N[C@@H](Cc2ccccc2)C(=O)N[C@@H](Cc2ccccc2)C(=O)N1 (H-Y[dK]FFD-NH2; lactam 2-5) | – | – | 2.36 |

Reference: ChEMBL document CHEMBL3352451, “Cyclic side-chain-linked opioid analogs utilizing cis- and trans-4-aminocyclohexyl-D-alanine” (Bioorg Med Chem, 2014)
